In patent US7109193B2, “Tricyclic diazepines tocolytic oxytocin receptor antagonists” (Wyeth, priority 2001, dated 2006):

Target: T1, human vasopressin V2 receptor subtype (Homo sapiens, UniProt P30518)
T1 construct: host or cells: CHO cells (pZeoSV vector)
Experiment: Vasopressin binding in Chinese Hamster Ovary cell membranes expressing human vasopressin V2 subtype receptors
Conditions: 100 nM, CHO cell membranes, [3H]arginine vasopressin, values without parentheses
Procedure: Vasopressin Binding in Chinese Hamster Ovary Cell Membranes Expressing Human Vasopressin V2 Subtype Receptors
Chinese Hamster Ovary (CHO) cells stably transfected with the human V2 subtype receptors were obtained from M. Thibonnier, Case Western Reserve University School of Medicine, Cleveland, Ohio.
A. Passaging and Amplification of Cells:
The trypsin is removed by aspiration and the cells dislodged by tapping. Cell Culture medium (e.g. 30 mL for 1:30 split) is immediately added and mixed well to inactivate trypsin. 1 mL of detached cells is added to new culture flasks containing fresh Cell Culture medium (e.g. into 25 mL per T-150 flask), and mixed gently. The cells are incubated at 37° C. in 5% CO2. The medium is changed at 3 to 4 day interval (or as appropriate). […] All steps are done under sterile conditions. B. Membrane Preparation: The cells are washed twice gently with Hank's Balanced Salt solution (e.g. use 10 mL per T-150 flask). […] The contents are transferred to centrifuge tubes (50 mL) kept in ice bath. All subsequent steps are done at 4° C. The tubes are centrifuged at 300×g for 15 min (1380 rpm on SORVAL, Model RT6000D, using the rotor for 50 mL tubes). The supernatant is discarded and the cells suspended in homogenizing buffer (10 mM Tris-HCl containing 0.25 M sucrose and 1 mM EDTA, pH 7.4) ensuring that the volume of the buffer is about ten times the volume of the cell pellet. The cells are pooled into a centrifuge tube (50 mL) and homogenized with a Polytron at setting 6 for 10 sec. The homogenate is transferred into a Potter-Elvjehm homogenizer and homogenized with 3 strokes. The homogenate is centrifuged at 1500×g for 60 min at 4° C. (3100 rpm using SORVAL, model RT6000D, using the rotor for 50 mL tubes). The pellet is discarded. The supernatant is centrifuged at 100,000×g for 60 min. at 4° C. (Beckman L8-80M ultracentrifuge; spin at 37,500 rpm with rotor type 70 Ti for 50 mL tubes; 38,000 rpm with type 80Ti for 15 mL tubes; or 35,800 rpm with rotor type 45Ti). The supernantant is discarded and the pellet suspended in 3 to 4 mL of Tris buffer (50 mM TRIS-HCl, pH 7.4). The protein content is estimated by the Bradford or Lowry method. The volume of the membrane suspension is adjusted with the membrane buffer (50 mM Tris-HCl containing 0.1% BSA and 0.1 mM PMSF) to give 3.0 mg/mL (or as appropriate) of protein. The membranes are aliquoted and stored at −70° C. C. Radioligand Binding Assay: In wells of a 96-well format microtiter plate, is added 90, 110 or 130 μL (to make up a final volume of 200 μL) of assay buffer containing 50 mM of Tris-HCl (pH 7.4), […], 1 mg % aprotinin, 1 mg % leupeptin, 2 mg % 1,10-phenanthroline, 10 mg % trypsin inhibitor, and 0.1 mM PMSF. The inhibitors are added on the day of the experiment. The components are mixed at room temperature, and then kept in ice bath following adjustment of the pH to 7.4. […] For vasopressin and other peptide ligands 20 μL of 50% DMSO is added and the assay buffer volume is adjusted accordingly. To each well is added 50 μL of frozen membrane suspension thawed immediately prior to use and diluted in assay buffer to the required concentration (equivalent to 25 to 50 μg of protein/well as needed). 20 μL of 8 nM [^3H]arginine vasopressin ligand in the assay buffer, prepared just before use is added and incubated at room temperature for 60 min. shaking the plate on a mechanical shaker for the first 15 min. The incubation is stopped by rapid filtration of the plate contents followed by wash with ice-cold buffer (50 mM Tris-HCl, pH 7.4) using a cell harvester (Tomtek and Printed filtermat-B filter paper). The filter paper is thoroughly dried (7–12 min. in a microwave oven) and impregnated with MeltiLex B/H melt-on scintillation wax sheets and the radioactivity counted in a betaplate scintillation counter.

T1 sequence (P30518 whole entry): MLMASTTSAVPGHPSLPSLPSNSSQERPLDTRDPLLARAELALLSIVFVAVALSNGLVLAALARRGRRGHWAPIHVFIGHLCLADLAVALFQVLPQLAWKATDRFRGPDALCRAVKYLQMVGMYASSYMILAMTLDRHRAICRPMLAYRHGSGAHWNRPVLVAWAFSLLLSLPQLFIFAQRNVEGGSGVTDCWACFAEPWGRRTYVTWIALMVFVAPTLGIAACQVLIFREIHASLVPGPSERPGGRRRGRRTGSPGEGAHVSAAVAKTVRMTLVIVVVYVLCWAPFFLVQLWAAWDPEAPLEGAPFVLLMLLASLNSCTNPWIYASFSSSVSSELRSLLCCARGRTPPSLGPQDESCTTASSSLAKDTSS

Cc1cccc(N2CCN(C(=O)c3ccc4n3Cc3ccccc3N(C(=O)c3ccc(-c5ccccc5C(F)(F)F)c(C)c3)C4)CC2C)c1 (stereo not drawn) [Example 5, [3-Methyl-4-(3-methyl-phenyl)-piperazin-1-yl]-[10-(2-methyl-2′-trifluoromethyl-[1,1′-biphenyl]-4-yl)carbonyl]-10,11-dihydro-5H-pyrrolo[2,1-c][1,4]benzodiazepin-3-yl-methanone] was tested. Which “V2 % inhibition @ 100 nM” value did it give?
Its value is 3%.

With COc1cc(C(=O)N2Cc3ccc(C(=O)N4CCC[C@H]4CN4CCCC4)n3Cc3ccccc32)ccc1-c1ccccc1C [Example 266, {10-[(2-Methoxy-2′-methyl[1,1′-biphenyl]-4-yl)carbonyl]-10,11-dihydro-5H-pyrrolo[2,1-c][1,4]benzodiazepin-3-yl}[(2S)-2-(1-pyrrolidinylmethyl)pyrrolidinyl]methanone] as the compound, how does the “V2 % inhibition @ 100 nM” value read?
The value was −17%.

Which inhibition at 0.1 µM does the source give for COc1cccc(-c2ccc(C(=O)N3Cc4ccc(C(=O)NCCN5CCCCC5)n4Cc4ccccc43)cc2C)c1 [Example 151, 10-[(3′-Methoxy-2-methyl[1,1′-biphenyl]-4-yl)carbonyl]-N-[2-(1-piperidinyl)ethyl]-10,11-dihydro-5H-pyrrolo[2,1-c][1,4]benzodiazepine-3-carboxamide] here?
Its inhibition at 0.1 µM is 6%.

With COc1ccccc1-c1ccc(C(=O)N2Cc3ccc(C(=O)N4CCC(N5CCCCC5)CC4)n3Cc3ccccc32)cc1C [Example 112, {10-[(2-Methyl-2′-methoxy[1,1′-biphenyl]-4-yl)carbonyl]-10,11-dihydro-5H-pyrrolo[2,1-c][1,4]benzodiazepin-3-yl}[4-(1-piperidinyl)-1-piperidinyl]methanone] as the compound, how does the inhibition at 0.1 µM read?
Its inhibition at 0.1 µM is 32%.

How did the “V2 % inhibition @ 100 nM” value turn out when COc1cccc(-c2cc(OC)c(C(=O)N3Cc4ccc(C(=O)N5CCN(CCN6CCOCC6)CC5)n4Cc4ccccc43)cc2Cl)c1 [Example 212, {10-[(6-Chloro-3,3′-dimethoxy[1,1′-biphenyl]-4-yl)carbonyl]-10,11-dihydro-5H-pyrrolo[2,1-c][1,4]benzodiazepin-3-yl}{4-[2-(4-morpholinyl)ethyl]-1-piperazinyi}methanone] was run?
The value was 43%.

COc1ccccc1-c1ccc(C(=O)N2Cc3ccc(C(=O)NCCCn4ccnc4)n3Cc3ccccc32)cc1OC [Example 132, 10-[(2,2′-Dimethoxy[1,1′-biphenyl]-4-yl)carbonyl]-N-[3-(1H-imidazol-1-yl)propyl]-10,11-dihydro-5H-pyrrolo[2,1-c][1,4]benzodiazepine-3-carboxamide] was tested. Which inhibition at 0.1 µM did it give?
The inhibition at 0.1 µM was 16%.

With COc1cc(C(=O)N2Cc3ccc(C(=O)N4CC[C@@H](N(C)C)C4)n3Cc3ccccc32)ccc1-n1c(C)ccc1C [Example 322, [(3R)-3-(Dimethylamino)pyrrolidinyl]{10-[4-(2,5-dimethyl-1H-pyrrol-1-yl)-3-methoxybenzoyl]-10,11-dihydro-5H-pyrrolo[2,1-c][1,4]benzodiazepin-3-yl}methanone] as the compound, how does the “V2 % inhibition @ 100 nM” value read?
Its value is 24%.

With COc1cccc(-c2cc(OC)c(C(=O)N3Cc4ccc(C(=O)NCCCn5ccnc5)n4Cc4ccccc43)cc2Cl)c1 [Example 130, 10-[(6-Chloro-3,3′-dimethoxy[1,1′-biphenyl]-4-yl)carbonyl]-N-[3-(1H-imidazol-1-yl)propyl]-10,11-dihydro-5H-pyrrolo[2,1-c][1,4]benzodiazepine-3-carboxamide] as the compound, how does the inhibition at 0.1 µM read?
Its inhibition at 0.1 µM is 5%.

Which “V2 % inhibition @ 100 nM” value does the source give for COc1cc(C(=O)N2Cc3ccc(C(=O)N4CCC[C@H]4CN4CCCC4)n3Cc3ccccc32)ccc1-c1cccc2ccccc12 [Example 262, {10-[3-Methoxy-4-(1-naphthyl)benzoyl]-10,11-dihydro-5H-pyrrolo[2,1-c][1,4]benzodiazepin-3-yl}[(2S)-2-(1-pyrrolidinylmethyl)pyrrolidinyl]methanone] here?
The value was 4%.

For COc1ccccc1-c1ccc(C(=O)N2Cc3ccc(C(=O)NCCCn4ccnc4)n3Cc3ccccc32)cc1C [Example 123, N-[3-(1H-Imidazol-1-yl)propyl]-10-[(2′-methoxy-2-methyl[1,1′-biphenyl]-4-yl)carbonyl]-10,11-dihydro-5H-pyrrolo[2,1-c][1,4]benzodiazepine-3-carboxamide], which inhibition at 0.1 µM is on record?
Its inhibition at 0.1 µM is 15%.

Which “V2 % inhibition @ 100 nM” value does the source give for COc1ccccc1-c1ccc(C(=O)N2Cc3ccc(C(=O)N4CCC(N5CCCC5)CC4)n3Cc3ccccc32)cc1OC [Example 145, {10-[(2,2′-Dimethoxy[1,1′-biphenyl]4-yl)carbonyl]-10,11-dihydro-5H-pyrrolo[2,1-c][1,4]benzodiazepin-3-yl}[4-(1-pyrrolidinyl)-l-piperidinyl]methanone] here?
The value was −5%.

With O=C(NCCCn1ccnc1)c1ccc2n1Cc1ccccc1N(C(=O)c1ccc(-c3cccc4ccccc34)cc1Cl)C2 [Example 134, 10-[2-Chloro-4-(1-naphthyl)benzoyl]-N-[3-(1H-imidazol-1-yl)propyl]-10,11-dihydro-5H-pyrrolo[2,1-c][1,4]benzodiazepine-3-carboxamide] as the compound, how does the inhibition at 0.1 µM read?
The inhibition at 0.1 µM was 16%.

Cc1ccccc1-c1ccc(C(=O)N2Cc3ccc(C(=O)N4CC[C@@H](N(C)C)C4)n3Cc3ccccc32)cc1 [Example 280, [(3R)-3-(Dimethylamino)pyrrolidinyl]{10-[(2′-methyl[1,1′-biphenyl]-4-yl)carbonyl]-10,11-dihydro-5H-pyrrolo[2,1-c][1,4]benzodiazepin-3-yl}methanone] was tested. Which “V2 % inhibition @ 100 nM” value did it give?
Its value is 6%.

With COc1cc(C(=O)N2Cc3ccc(C(=O)N4CC[C@@H](N(C)C)C4)n3Cc3ccccc32)ccc1-c1cccc2ccccc12 [Example 276, [(3R)-3-(Dimethylamino)pyrrolidinyl]{10-[3-methoxy-4-(1-naphthyl)benzoyl]-10,11-dihydro-5H-pyrrolo[2,1-c][1,4]benzodiazepin-3-yl}methanone] as the compound, how does the “V2 % inhibition @ 100 nM” value read?
Its value is −3%.

COc1cccc(-c2cc(OC)c(C(=O)N3Cc4ccc(C(=O)N5CC[C@@H](N(C)C)C5)n4Cc4ccccc43)cc2Cl)c1 [Example 275, {10-[(6-Chloro-3,3′-dimethoxy[1,1′-biphenyl]-4-yl)carbonyl]-10,11-dihydro-5H-pyrrolo[2,1-c][1,4]benzodiazepin-3-yl}[(3R)-3-(dimethylamino)pyrrolidinyl]methanone] was tested. Which “V2 % inhibition @ 100 nM” value did it give?
The value was 21%.

COc1cc(C(=O)N2Cc3ccc(C(=O)N4CCC[C@H]4CN4CCCC4)n3Cc3ccccc32)ccc1-c1ccccc1Cl [Example 33, {[10-(2-Methoxy)-2′-chloro-[1,1′-biphenyl]-4-yl]carbonyl}-[(2S)-[(2-pyrrolidin-1-yl)methyl]pyrrolidin-1-yl]-10,11-dihydro-5H-pyrrolo[2,1-c][1,4]benzodiazepin-3-yl-methanone] was tested. Which “V2 % inhibition @ 100 nM” value did it give?
The value was 11%.

For COc1ccccc1-c1ccc(C(=O)N2Cc3ccc(C(=O)N(C)CCCN(C)C)n3Cc3ccccc32)cc1OC [Example 107, 10-[(2,2′-Dimethoxy[1,1′-biphenyl]-4-yl)carbonyl]-N-[3-(dimethylamino)propyl]-N-methyl-10,11-dihydro-5H-pyrrolo[2,1-c][1,4]benzodiazepine-3-carboxamide], which inhibition at 0.1 µM is on record?
Its inhibition at 0.1 µM is 19%.

For Cc1ccccc1-c1ccc(C(=O)N2Cc3ccc(C(=O)N4CCC(N5CCCC5)CC4)n3Cc3ccccc32)cc1C [Example 138, {10-[(2,2′-Dimethyl[1,1′-biphenyl]-4-yl)carbonyl]-10,11-dihydro-5H-pyrrolo[2,1-c][1,4]benzodiazepin-3-yl}[4-(1-pyrrolidinyl)-1-piperidinyl]methanone], which inhibition at 0.1 µM is on record?
The inhibition at 0.1 µM was 29%.
